Measured values taken from patent publication US12351571B2, “Substituted quinoxaline compounds as inhibitors of FGFR tyrosine kinases” (ARRAY BIOPHARMA INC., priority 2018, dated 2025).
pIC50: −log10 of the molar value.

Tests used:
dephosphorylated FGFR2 = dephosphorylated FGFR2 (Homo sapiens (Human), UniProt P21802); assay: FGFR Enzyme Binding Assay (HTRF tracer displacement), FGFR2; details: 5 nM dephosphorylated FGFR2, 60 minute incubation at 22° C.; read-out: FGFR2 Enz Binding IC50
Description: The potency of compounds inhibiting human isoforms of FGFR kinase was determined using Life Technologies' Homogeneous Time Resolved Fluorescence (HTRF)-based binding assay technology. An incubation was conducted with either 5 nM dephosphorylated FGFR1 (Array Biopharma, p1702; SEQ ID NO: 1, amino acids 458 to 765, dephosphorylated by co-expression with PTP1b (protein tyrosine phosphatase 1B)), 5 nM dephosphorylated FGFR2 (Life Technologies, Cat. No. PV4106 that had been dephosphorylated with Lambda protein phosphatase (New England Biolabs, cat #P0753)) or 5 nM phosphorylated FGFR3 (Array Biopharma, p1836; SEQ ID NO: 5, amino acids 449 to 759), 50 nM Kinase Tracer 236 (Life Technologies Cat. No. PR9078A), 2 nM Biotin-anti-6HIS (Life Technologies Cat. No. PV6090) and 2 nM Europium-Streptavidin (Life Technologies Cat. No. PV6025) along with test compound in a buffer consisting of 50 mM HEPES ((4-(2-hydroxyethyl)-1-piperazineethanesulfonic acid, pH 7.5), 5 mM MgCl2, 0.005% Triton X-100, 1 mM DTT, 1 mM NaVO4 and 2% DMSO in a final volume of 12 μL Compounds were typically prepared as a 3-fold or 4-fold serial dilution in DMSO and added to the assay to give the appropriate final concentration. After a 60 minute incubation at 22° C., the extent of tracer displacement was determined using a PerkinElmer EnVision multimode plate reader via HTRF dual wavelength detection, and the percent of control (POC) was calculated using a ratiometric emission factor. One hundred POC was determined using no test compound, and 0 POC was determined in the presence of 1 μM of an appropriate control inhibitor. A 4-parameter logistic curve was fit to the POC values as a function of the concentration of compound, and the IC50 value was the point where the best-fit curve crossed 50 POC.

human wild type FGFR2 = human wild type FGFR2 (Homo sapiens (Human), UniProt P21802); assay: FGFR2 pFGFR Cell Assay; assay type: cell-based; details: HEK-293 cells, 1 hour compound, 30 ng/ml human FGF-acidic, ELISA
Chain of human wild type FGFR2 (P21802 22-821): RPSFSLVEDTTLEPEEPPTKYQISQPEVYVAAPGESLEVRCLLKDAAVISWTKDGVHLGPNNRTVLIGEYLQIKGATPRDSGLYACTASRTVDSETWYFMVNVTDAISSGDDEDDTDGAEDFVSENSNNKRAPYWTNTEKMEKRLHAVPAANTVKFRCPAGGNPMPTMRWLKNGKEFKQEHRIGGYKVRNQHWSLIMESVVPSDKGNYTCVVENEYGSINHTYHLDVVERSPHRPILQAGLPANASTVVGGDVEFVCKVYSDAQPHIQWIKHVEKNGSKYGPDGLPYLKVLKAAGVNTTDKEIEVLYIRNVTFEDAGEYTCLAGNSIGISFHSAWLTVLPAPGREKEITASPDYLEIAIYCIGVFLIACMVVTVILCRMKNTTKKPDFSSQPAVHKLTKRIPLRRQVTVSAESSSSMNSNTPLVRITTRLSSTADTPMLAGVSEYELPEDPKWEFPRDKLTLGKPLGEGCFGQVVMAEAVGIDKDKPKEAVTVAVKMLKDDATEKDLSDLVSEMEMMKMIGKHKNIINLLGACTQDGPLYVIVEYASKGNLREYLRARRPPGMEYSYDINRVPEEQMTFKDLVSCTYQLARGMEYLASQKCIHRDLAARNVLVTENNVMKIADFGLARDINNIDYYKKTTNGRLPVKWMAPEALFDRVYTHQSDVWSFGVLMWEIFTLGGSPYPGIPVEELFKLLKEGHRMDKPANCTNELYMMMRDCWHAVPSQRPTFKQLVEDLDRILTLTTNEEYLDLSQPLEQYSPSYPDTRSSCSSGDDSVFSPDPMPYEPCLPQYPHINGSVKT
Description: (§1) HEK-293 cells transfected with dox-inducible human wild type FGFR2 (SEQ ID NO: 3) were plated in a collagen or poly-D-lysine coated 96 well flat bottom plates at 4×10^5 cells/well in complete DMEM medium containing 10% FBS and 1 μg/ml doxycycline and allowed to attach for 24 h at 37° C., 5% CO2. Cells were treated with compound using 1:3 serial dilutions with a maximum final concentration of 5 μM. Compound was incubated on cells for 1 hour at 37° C., 5% CO2. Cells were then stimulated with a final concentration of 30 ng/ml human FGF-acidic (R&D Systems Cat number 232-FA/CF) for 5 minutes at 37° C., 5% CO2. Medium was removed and cells were lysed with lysis buffer containing phosphatase and protease inhibitors. Phospho FGFR2 was measured by ELISA (R&D Systems cat. no. DYC684). The ELISA captures total FGFR2 and detects total phospho tyrosine. Optical density was measured for each well using a Versamax reader at a wavelength of 450 nm. 100 POC was determined using no test compounds and 0 POC was determined using a control compound. The POC values were fit to a 4-parameter logistic curve as a function of the concentration of the compound, and the IC50 value is the point where the curve crosses 50 POC.

human wild type FGFR3 = human wild type FGFR3 (Homo sapiens (Human), UniProt P22607); assay: FGFR3 pFGFR Cell Assay; assay type: cell-based; details: HEK-293 cells, 1 hour compound, 100 ng/ml human FGF-acidic, ELISA
Chain of human wild type FGFR3 (P22607 23-806): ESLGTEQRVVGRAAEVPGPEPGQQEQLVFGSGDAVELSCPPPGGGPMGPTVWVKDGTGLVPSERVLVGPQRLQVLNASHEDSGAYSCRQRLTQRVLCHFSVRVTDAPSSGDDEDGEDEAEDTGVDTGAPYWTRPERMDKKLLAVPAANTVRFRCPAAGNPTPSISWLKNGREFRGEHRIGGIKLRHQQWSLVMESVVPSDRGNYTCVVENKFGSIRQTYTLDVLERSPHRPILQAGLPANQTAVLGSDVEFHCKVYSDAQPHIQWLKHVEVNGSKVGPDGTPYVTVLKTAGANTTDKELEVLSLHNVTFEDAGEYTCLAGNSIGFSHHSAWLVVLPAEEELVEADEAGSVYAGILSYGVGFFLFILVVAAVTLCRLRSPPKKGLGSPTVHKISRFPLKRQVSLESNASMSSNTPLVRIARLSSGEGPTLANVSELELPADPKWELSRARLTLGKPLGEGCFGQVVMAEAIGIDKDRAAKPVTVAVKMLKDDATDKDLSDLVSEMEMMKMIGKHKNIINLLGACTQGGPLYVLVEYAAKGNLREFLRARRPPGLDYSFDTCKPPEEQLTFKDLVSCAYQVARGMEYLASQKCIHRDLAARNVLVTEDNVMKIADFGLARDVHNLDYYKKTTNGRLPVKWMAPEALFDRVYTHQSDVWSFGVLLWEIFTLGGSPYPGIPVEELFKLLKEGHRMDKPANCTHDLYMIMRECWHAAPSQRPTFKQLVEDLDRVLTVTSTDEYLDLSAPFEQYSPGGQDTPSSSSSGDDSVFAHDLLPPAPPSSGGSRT
Description: as §1, with “FGFR3” for “FGFR2”, “5)” for “3)”, “top” for “maximum”, “100” for “30”, “FGF-acidic” for “FGF-acidic (R&D Systems Cat number 232-FA/CF)”, “cat DYC2719).” for “cat. no. DYC684).”

Chain of dephosphorylated FGFR2 (P21802 22-821): as the sequence (P21802 22-821) above

| pIC50 (dephosphorylated FGFR2) | pIC50 (human wild type FGFR2) | pIC50 (human wild type FGFR3) | Compound |
| --- | --- | --- | --- |
| 8.22 | 6.93 | 6.92 | C=CC(=O)N1CC[C@@H](C(=O)N2CCC(n3cc(-c4cnc5ccc(Nc6cc(OC)cc(OC)c6)cc5n4)cn3)CC2)C1 [Example 2, (R)-1-(3-(4-(4-(7-((3,5-dimethoxyphenyl)amino)-quinoxalin-2-yl)-1H-pyrazol-1-yl)piperidine-1-carbonyl)pyrrolidin-1-yl)-prop-2-en-1-one] |
| 8.30 | 7.16 | 7.05 | C=CC(=O)N1CCC(C(=O)N2CCC(n3cc(-c4cnc5ccc(Nc6cc(OC)cc(OC)c6)cc5n4)cn3)CC2)CC1 [Example 3, 1-(4-(4-(4-(7-((3,5-dimethoxyphenyl)amino)-quinoxalin-2-yl)-1H-pyrazol-1-yl)piperidine-1-carbonyl)piperidin-1-yl)prop-2-en-1-one] |
